# Reference: article PMC10628895, “Conformationally Selective 2-Aminotetralin Ligands Targeting the alpha2A- and alpha2C-Adrenergic Receptors” (ACS Chemical Neuroscience, 2023)
# System: rodents
# Test: not given
# Details: cited from earlier work
row,SMILES,effect on locomotor activity (in words)
1,"CN(C)[C@H]1CCc2c(cccc2-c2ccccc2F)C1 [(S)-2, (2S)-5-(2′-fluorophenyl)-N,N-dimethyl-1,2,3,4-tetrahydronaphthalen-2-amine]",did not impact locomotor activity

# System: mouse models of autism spectrum disorder (ASD)
# Test: not given
# Set-up: method as in PMID 32566916, PMID 26011730, PMID 36473166
# Details: orally active; cited from earlier work
row,SMILES,effect in mouse models of autism spectrum disorder (in words)
1,"CN(C)[C@H]1CCc2c(cccc2-c2ccccc2F)C1 [(S)-2, (2S)-5-(2′-fluorophenyl)-N,N-dimethyl-1,2,3,4-tetrahydronaphthalen-2-amine]","improves repetitive behaviors, social behaviors, anxiety behaviors, and ameliorates seizures"

# Target: T1, human wild-type α2CR (Homo sapiens, UniProt P18825)
# T1 sequence (P18825 1-462): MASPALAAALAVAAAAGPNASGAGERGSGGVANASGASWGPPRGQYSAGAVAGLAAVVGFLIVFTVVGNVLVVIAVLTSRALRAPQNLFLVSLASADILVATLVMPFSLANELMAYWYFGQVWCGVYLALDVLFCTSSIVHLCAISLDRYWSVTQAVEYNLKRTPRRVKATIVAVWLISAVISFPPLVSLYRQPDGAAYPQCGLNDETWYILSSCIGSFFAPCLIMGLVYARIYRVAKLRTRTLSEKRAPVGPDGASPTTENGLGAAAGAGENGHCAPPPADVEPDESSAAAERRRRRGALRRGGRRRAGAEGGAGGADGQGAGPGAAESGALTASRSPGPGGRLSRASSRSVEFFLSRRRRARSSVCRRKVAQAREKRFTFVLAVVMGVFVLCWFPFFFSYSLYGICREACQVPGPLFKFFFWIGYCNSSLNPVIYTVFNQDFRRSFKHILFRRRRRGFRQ
# Test: Radioligand binding with [3H]rauwolscine (competition and saturation), membranes of transfected HEK293 cells
# Set-up: host or cells: mouse connective-tissue cells stably expressing the receptor
# Details: not given
row,SMILES,Ki [nM]
1,CN(C)[C@@H]1CCc2c(cccc2-c2ccccc2)C1 [(R)-1],500 ± 75
2,"CN(C)[C@@H]1CCc2c(cccc2-c2ccccc2F)C1 [(R)-2, (R)-5-(2-Fluorophenyl)-N,N-dimethyl-1,2,3,4-tetrahydronaphthalen-2-amine]",680 ± 120
3,CN(C)[C@@H]1CCc2c(cccc2-c2ccccc2Cl)C1 [(R)-3],500 ± 86
4,CCCN(CCC)[C@@H]1CCc2c(cccc2-c2ccccc2)C1 [(R)-5],580 ± 54
5,CCCN(CCC)[C@@H]1CCc2c(cccc2-c2ccccc2Cl)C1 [(R)-6],340 ± 95
6,CN(C)[C@@H]1CCc2c(cccc2-c2ccco2)C1 [(R)-8],460 ± 72
7,CN(C)[C@@H]1CCc2c(cccc2-c2cccn2C)C1 [(R)-10],310 ± 39
8,CN(C)[C@H]1CCc2c(cccc2-c2ccccc2)C1 [(S)-1],35 ± 4.6
9,"CN(C)[C@H]1CCc2c(cccc2-c2ccccc2F)C1 [(S)-2, (2S)-5-(2′-fluorophenyl)-N,N-dimethyl-1,2,3,4-tetrahydronaphthalen-2-amine]",19 ± 4.6

# Target: T2, human wild-type α2AR (Homo sapiens, UniProt P08913)
# T2 sequence (P08913 1-465): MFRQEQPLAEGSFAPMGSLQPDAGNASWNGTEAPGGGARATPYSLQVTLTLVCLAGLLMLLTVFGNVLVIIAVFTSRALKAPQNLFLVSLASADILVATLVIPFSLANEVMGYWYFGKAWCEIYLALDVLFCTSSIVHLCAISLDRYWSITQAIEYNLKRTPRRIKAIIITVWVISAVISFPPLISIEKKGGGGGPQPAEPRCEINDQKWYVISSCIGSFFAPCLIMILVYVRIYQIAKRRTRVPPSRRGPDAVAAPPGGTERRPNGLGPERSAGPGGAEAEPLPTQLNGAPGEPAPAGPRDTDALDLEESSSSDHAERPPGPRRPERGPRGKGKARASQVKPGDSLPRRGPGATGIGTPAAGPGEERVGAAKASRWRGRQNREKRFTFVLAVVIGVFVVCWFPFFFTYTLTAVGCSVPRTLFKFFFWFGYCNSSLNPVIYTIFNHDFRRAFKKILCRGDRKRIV
# Test: cAMP accumulation, LANCE Ultra cAMP TR-FRET immunoassay, cells stably expressing α2AR
# Details: not given
row,SMILES,EC50 [nM]
1,CN(C)[C@H]1CCc2c(cccc2-c2ccccc2)C1 [(S)-1],1.4 ± 0.23
2,"CN(C)[C@H]1CCc2c(cccc2-c2ccccc2F)C1 [(S)-2, (2S)-5-(2′-fluorophenyl)-N,N-dimethyl-1,2,3,4-tetrahydronaphthalen-2-amine]",0.55 ± 0.15

# Same assay, conditions: cAMP formation
row,SMILES,functional activity at the α2AR (in words)
1,CN(C)[C@H]1CCc2c(cccc2-c2ccccc2)C1 [(S)-1],agonist activity

# Same assay, conditions: percent maximum response normalized to lofexidine; mean ± SD; NC = no significant change from forskolin-established baseline signaling; listed as 1 (5-PAT)
row,SMILES,Emax α2AR [%]
1,CN(C)[C@H]1CCc2c(cccc2-c2ccccc2)C1 [(S)-1],24 ± 4.0

# Same assay, conditions: read-out: Emax α2AR, percent maximum response normalized to lofexidine; mean ± SD; NC = no significant change from forskolin-established baseline signaling
row,SMILES,Emax [%]
1,CN(C)[C@H]1CCc2c(cccc2-c2ccccc2)C1 [(S)-1],~25
2,"CN(C)[C@H]1CCc2c(cccc2-c2ccccc2F)C1 [(S)-2, (2S)-5-(2′-fluorophenyl)-N,N-dimethyl-1,2,3,4-tetrahydronaphthalen-2-amine]",45 ± 1.9

# Target: T2, human wild-type α2AR
# Test: Radioligand binding with [3H]rauwolscine (competition and saturation), membranes of transfected HEK293 cells
# Set-up: host or cells: mouse connective-tissue cells stably expressing the receptor
# Details: not given
row,SMILES,Ki [nM]
1,CN(C)[C@@H]1CCc2c(cccc2-c2ccccc2)C1 [(R)-1],320 ± 40
2,"CN(C)[C@@H]1CCc2c(cccc2-c2ccccc2F)C1 [(R)-2, (R)-5-(2-Fluorophenyl)-N,N-dimethyl-1,2,3,4-tetrahydronaphthalen-2-amine]",2500 ± 810
3,CN(C)[C@@H]1CCc2c(cccc2-c2ccccc2Cl)C1 [(R)-3],490 ± 65
4,CCCN(CCC)[C@@H]1CCc2c(cccc2-c2ccccc2)C1 [(R)-5],190 ± 30
5,CCCN(CCC)[C@@H]1CCc2c(cccc2-c2ccccc2Cl)C1 [(R)-6],94 ± 26
6,CN(C)[C@@H]1CCc2c(cccc2-c2ccco2)C1 [(R)-8],1300 ± 330
7,CN(C)[C@@H]1CCc2c(cccc2-c2cccn2C)C1 [(R)-10],130 ± 33
8,CN(C)[C@H]1CCc2c(cccc2-c2ccccc2)C1 [(S)-1],6.9 ± 1.8
9,"CN(C)[C@H]1CCc2c(cccc2-c2ccccc2F)C1 [(S)-2, (2S)-5-(2′-fluorophenyl)-N,N-dimethyl-1,2,3,4-tetrahydronaphthalen-2-amine]",3.5 ± 0.97

# Target: T1, human wild-type α2CR
# Test: cAMP accumulation, LANCE Ultra cAMP TR-FRET immunoassay, cells stably expressing α2CR
# Details: not given
row,SMILES,IC50 [nM]
1,CN(C)[C@H]1CCc2c(cccc2-c2ccccc2)C1 [(S)-1],370 ± 1.9
2,"CN(C)[C@H]1CCc2c(cccc2-c2ccccc2F)C1 [(S)-2, (2S)-5-(2′-fluorophenyl)-N,N-dimethyl-1,2,3,4-tetrahydronaphthalen-2-amine]",79 ± 1.7

# Same assay, conditions: cAMP formation
row,SMILES,functional activity at the α2CR (in words)
1,CN(C)[C@H]1CCc2c(cccc2-c2ccccc2)C1 [(S)-1],inverse agonism
2,"CN(C)[C@H]1CCc2c(cccc2-c2ccccc2F)C1 [(S)-2, (2S)-5-(2′-fluorophenyl)-N,N-dimethyl-1,2,3,4-tetrahydronaphthalen-2-amine]",inverse agonists
